Results as given in PMC10363080, “Modulatory Effect of Pyrus pyrifolia Fruit and its Phenolics on Key Enzymes against Metabolic Syndrome: Bioassay-Guided Approach, HPLC Analysis, and In Silico Study” (Plant Foods for Human Nutrition (Dordrecht, Netherlands), 2023).

Key:
pancreatic α-amylase = target: T1, pancreatic α-amylase (Sus scrofa, UniProt P00690); assay: α-Amylase inhibitory activity (starch substrate); type: biochemical, porcine; settings: isolated compounds, Table S7; read-out: Inhibition (IC50) α-Amylase
T1 construct: pancreatic α-amylase (ex -porcine pancreas, EC 3.2.1.1, Sigma); purchased Sigma; host or cells: porcine pancreas
T1 sequence (P00690 16-511): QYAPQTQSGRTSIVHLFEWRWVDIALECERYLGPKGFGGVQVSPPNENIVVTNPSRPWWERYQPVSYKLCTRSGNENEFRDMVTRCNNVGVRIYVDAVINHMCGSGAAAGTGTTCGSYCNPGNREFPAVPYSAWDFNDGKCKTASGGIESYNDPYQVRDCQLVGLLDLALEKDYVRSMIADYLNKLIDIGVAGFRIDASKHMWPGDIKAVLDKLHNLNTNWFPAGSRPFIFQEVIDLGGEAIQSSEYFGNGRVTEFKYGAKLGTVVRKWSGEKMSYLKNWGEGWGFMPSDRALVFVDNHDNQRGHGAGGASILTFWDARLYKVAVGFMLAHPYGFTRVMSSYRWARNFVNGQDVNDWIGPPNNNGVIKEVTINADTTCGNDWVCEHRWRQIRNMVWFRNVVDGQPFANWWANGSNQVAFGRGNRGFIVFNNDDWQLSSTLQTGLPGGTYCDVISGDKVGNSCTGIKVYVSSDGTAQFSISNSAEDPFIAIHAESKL
Method: (§1) Phenolic acids and flavonoids used in HPLC analysis as well as all other reagents for biological investigations were obtained from Sigma Chemical Company […]
(§2) Inhibitory activity against key enzymes related to metabolic syndrome (MS) All assays were performed in 96-well plates. Stock solutions of the extract (100 mg/mL), fractions (100 mg/mL), and isolated compounds (1000 µM) were prepared. Tested samples that exceeded […]
(§3) inhibitory concentration (IC50). The percentage of enzyme inhibition was calculated according to […]
(§4) % Inhibition = (A−B) − (C−D) x 100 […]
α-Amylase inhibitory activity
α-Amylase inhibition assays were performed according to a previously described method. The tested samples we re incubated with pancreatic α-amylase (ex -porcine pancreas, EC 3.2.1.1, Sigma) followed by the addition of starch and iodine -potassium iodide solution for colo r development.
Starch [50 μL, 1% phosphate-buffered saline (PBS)] was mixed as substrate with 13 U mL−1 pancreatic α-amylase prepared in PBS, and 50 μL of test solution. A blank was performed using PBS. To initiate the reaction, the enzyme was added to the assay solution after being pre-incubated separately at 37 °C in a water bath for 10 min. Dinitrosalicylic acid reagent (1 mL) was added and […]
heated at 85 °C for 15 min. Then, it was cooled to room temperature and distilled water (1 mL) […]
was added. […] The absorbance was recorded at 540 nm.
(§5) Pancreatic lipase inhibitory activity […]

ACE1 = ACE1 (Homo sapiens, UniProt P12821); assay: Angiotensin conversion enzyme (ACE) inhibitory activity (HHL substrate); type: biochemical; settings: isolated compounds, Table S7; read-out: Inhibition (IC50) ACE1
Chain of ACE1 (P12821 30-1232): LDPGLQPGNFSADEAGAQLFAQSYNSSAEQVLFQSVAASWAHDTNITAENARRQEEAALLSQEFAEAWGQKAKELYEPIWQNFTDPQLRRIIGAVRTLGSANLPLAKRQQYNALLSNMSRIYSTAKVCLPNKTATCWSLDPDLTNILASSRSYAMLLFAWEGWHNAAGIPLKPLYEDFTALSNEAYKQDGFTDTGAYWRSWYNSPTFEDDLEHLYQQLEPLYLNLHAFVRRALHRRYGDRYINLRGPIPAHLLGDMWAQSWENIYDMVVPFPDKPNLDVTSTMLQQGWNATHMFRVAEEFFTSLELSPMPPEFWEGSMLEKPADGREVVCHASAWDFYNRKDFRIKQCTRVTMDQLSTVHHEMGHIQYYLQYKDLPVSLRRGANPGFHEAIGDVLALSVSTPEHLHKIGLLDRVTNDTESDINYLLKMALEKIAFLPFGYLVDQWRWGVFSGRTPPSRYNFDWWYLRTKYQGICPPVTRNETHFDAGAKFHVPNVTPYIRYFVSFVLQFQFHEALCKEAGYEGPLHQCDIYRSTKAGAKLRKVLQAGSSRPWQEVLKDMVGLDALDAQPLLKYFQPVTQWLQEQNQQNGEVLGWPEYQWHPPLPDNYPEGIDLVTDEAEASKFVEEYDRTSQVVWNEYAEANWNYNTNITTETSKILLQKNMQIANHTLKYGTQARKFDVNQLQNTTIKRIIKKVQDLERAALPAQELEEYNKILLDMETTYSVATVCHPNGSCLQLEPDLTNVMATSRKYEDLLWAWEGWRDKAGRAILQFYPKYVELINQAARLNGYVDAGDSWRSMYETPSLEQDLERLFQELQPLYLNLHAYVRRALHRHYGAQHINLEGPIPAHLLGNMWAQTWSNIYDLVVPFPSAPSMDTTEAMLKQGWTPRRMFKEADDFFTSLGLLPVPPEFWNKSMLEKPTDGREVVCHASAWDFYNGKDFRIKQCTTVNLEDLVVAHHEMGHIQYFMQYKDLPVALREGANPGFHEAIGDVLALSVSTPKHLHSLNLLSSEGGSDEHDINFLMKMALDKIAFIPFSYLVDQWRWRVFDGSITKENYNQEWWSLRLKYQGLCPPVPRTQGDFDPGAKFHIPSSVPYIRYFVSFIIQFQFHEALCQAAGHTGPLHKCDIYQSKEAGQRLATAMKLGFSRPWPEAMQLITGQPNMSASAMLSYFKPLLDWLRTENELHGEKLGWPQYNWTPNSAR
Method: as §1, §2, §3, §4, §5

xanthine oxidase (XO) = xanthine oxidase (XO) (Bos taurus, UniProt P80457); assay: Xanthine oxidase (XO) inhibitory activity; type: biochemical; settings: isolated compounds, Table S7; read-out: Inhibition (IC50) XO
Chain of xanthine oxidase (XO) (P80457 2-1332): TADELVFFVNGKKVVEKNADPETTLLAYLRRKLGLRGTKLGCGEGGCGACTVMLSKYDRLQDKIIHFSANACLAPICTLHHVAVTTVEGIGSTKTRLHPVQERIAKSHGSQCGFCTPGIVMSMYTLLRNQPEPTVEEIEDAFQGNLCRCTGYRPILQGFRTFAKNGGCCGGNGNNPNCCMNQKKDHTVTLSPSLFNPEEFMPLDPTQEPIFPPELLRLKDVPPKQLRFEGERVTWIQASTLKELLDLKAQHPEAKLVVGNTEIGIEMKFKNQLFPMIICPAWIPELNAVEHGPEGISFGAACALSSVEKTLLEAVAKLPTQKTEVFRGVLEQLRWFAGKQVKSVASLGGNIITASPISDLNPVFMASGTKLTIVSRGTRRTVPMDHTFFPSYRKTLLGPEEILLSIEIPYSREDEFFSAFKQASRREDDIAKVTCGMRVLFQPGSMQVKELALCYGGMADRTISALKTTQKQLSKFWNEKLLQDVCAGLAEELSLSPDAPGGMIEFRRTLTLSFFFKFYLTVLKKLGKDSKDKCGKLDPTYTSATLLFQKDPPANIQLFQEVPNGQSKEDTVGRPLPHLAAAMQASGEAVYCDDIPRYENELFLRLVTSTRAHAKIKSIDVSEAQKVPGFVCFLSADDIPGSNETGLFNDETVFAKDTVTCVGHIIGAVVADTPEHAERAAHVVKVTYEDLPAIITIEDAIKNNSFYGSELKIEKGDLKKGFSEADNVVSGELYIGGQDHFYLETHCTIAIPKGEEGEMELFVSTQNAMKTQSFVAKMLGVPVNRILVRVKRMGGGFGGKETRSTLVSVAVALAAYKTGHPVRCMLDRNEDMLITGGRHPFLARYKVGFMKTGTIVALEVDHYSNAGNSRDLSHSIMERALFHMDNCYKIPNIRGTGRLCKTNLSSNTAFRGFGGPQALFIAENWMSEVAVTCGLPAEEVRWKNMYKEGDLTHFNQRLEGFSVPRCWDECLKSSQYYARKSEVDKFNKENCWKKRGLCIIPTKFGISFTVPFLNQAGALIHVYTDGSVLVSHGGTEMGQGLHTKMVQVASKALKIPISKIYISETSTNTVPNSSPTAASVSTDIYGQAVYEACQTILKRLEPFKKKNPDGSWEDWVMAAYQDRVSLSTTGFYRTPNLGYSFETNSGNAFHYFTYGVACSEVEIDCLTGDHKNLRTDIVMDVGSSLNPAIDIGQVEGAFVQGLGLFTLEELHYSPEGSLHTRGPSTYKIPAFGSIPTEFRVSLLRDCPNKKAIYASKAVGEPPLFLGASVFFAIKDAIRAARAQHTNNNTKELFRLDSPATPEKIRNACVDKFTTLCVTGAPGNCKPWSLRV
Method: all of analytical grade. […]
as §1, §2, §3

SMILES	IC50 (pancreatic α-amylase)	IC50 (ACE1)	IC50 (xanthine oxidase (XO))
C[C@@H]1O[C@@H](OC[C@H]2O[C@@H](Oc3c(-c4ccc(O)c(O)c4)oc4cc(O)cc(O)c4c3=O)[C@H](O)[C@@H](O)[C@@H]2O)[C@H](O)[C@H](O)[C@H]1O [P1, rutin]	3540 ± 210 nM		
O=c1c(O[C@@H]2O[C@H](CO)[C@@H](O)[C@H](O)[C@H]2O)c(-c2ccc(O)c(O)c2)oc2cc(O)cc(O)c12 [P2, isoquercitrin]	1540 ± 180 nM		
COc1cc(-c2oc3cc(O)cc(O)c3c(=O)c2O[C@@H]2O[C@H](CO)[C@@H](O)[C@H](O)[C@H]2O)ccc1O [P3, isorhamnetin-3-O-β-D-glucopyranoside]	2310 ± 870 nM	310 ± 860 nM	3560 ± 830 nM
O=C(/C=C/c1ccc(O)c(O)c1)O[C@@H]1C[C@](O)(C(=O)O)C[C@@H](O)[C@H]1O [P4, chlorogenic acid]	3780 ± 190 nM		
O=C(O)/C=C/c1ccccc1 [P6, cinnamic acid]	1020 ± 630 nM		
